Patent publication US7491819B1 (priority 2004, dated 2009)

biological target: T1, HIV-integrase (Human immunodeficiency virus type 1 group M subtype B, UniProt P12497); assay: HIV-Integrase Inhibition Activity (SPA bead strand-transfer assay); format: biochemical; settings: Table 1; read-out: Activity (HIV-integrase inhibition, IC50 class)
T1 construct: Recombinant integrase (0.26 ng) was incubated with the beads
Procedure, shortened: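 Biotin-labelled substrate DNA (5 pmole) bound to streptavidin SPA beads, preloaded with recombinant integrase (0.26 ng) for 90 min at 37° C, then washed. Inhibitors and 0.1 fmol P33-labelled target DNA added; reaction stopped with 10 mM EDTA. Integration read as scintillation CPM.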

Question: CN(C)S(=O)(=O)c1cc(F)ccc1CNC(=O)c1nc2n(c(=O)c1O)CCOC2(C)C [Example 108, Pyrimido[2,1-c][1,4]oxazine-2-carboxamide, N-[[2-[(dimethylamino)sulfonyl]-4-fluorophenyl]methyl]-4,6,7,9-tetrahydro-3-hydroxy-9,9-dimethyl-4-oxo-] was tested. Which IC50 did it give?
Answer: 2 to 100 nM

Question: With Cc1cccc(CNC(=O)c2nc3n(c(=O)c2O)CCOC3(C)C)c1C [Example 233, Pyrimido[2,1-c][1,4]oxazine-2-carboxamide, N-[(2,3-dimethylphenyl)methyl]-4,6,7,9-tetrahydro-3-hydroxy-9,9-dimethyl-4-oxo-] as the compound, how does the IC50 read?
Answer: 2 to 100 nM

Question: For COc1ncc(-c2ccccc2CNC(=O)c2nc3n(c(=O)c2O)CCOC3(C)C)c(OC)n1 [Example 149, Pyrimido[2,1-c][1,4]oxazine-2-carboxamide, N-[[2-(2,4-dimethoxy-5-pyrimidinyl)phenyl]methyl]-4,6,7,9-tetrahydro-3-hydroxy-9,9-dimethyl-4-oxo-], which IC50 is on record?
Answer: 2 to 100 nM

Question: Which IC50 does the source give for CCOc1ccc(-c2ccccc2CNC(=O)c2nc3n(c(=O)c2O)CCOC3(C)C)cn1 [Example 199, Pyrimido[2,1-c][1,4]oxazine-2-carboxamide, N-[[2-(6-ethoxy-3-pyridinyl)phenyl]methyl]-4,6,7,9-tetrahydro-3-hydroxy-9,9-dimethyl-4-oxo-] here?
Answer: 2 to 100 nM

Question: CC1(C)OCCn2c1nc(C(=O)NCc1ccccc1N1CCCCS1(=O)=O)c(O)c2=O [Example 215, Pyrimido[2,1-c][1,4]oxazine-2-carboxamide, 4,6,7,9-tetrahydro-3-hydroxy-9,9-dimethyl-4-oxo-N-[[2-(tetrahydro-1,1-dioxido-2H-1,2-thiazin-2-yl)phenyl]methyl]-] was tested. Which IC50 did it give?
Answer: 2 to 100 nM

Question: With CC(C)(C)OC(=O)N1CCN(c2ccccc2CNC(=O)c2nc3n(c(=O)c2O)CCOC3(C)C)CC1 [Example 261, 1-piperazinecarboxylic acid, 4-[2-[[[(4,6,7,9-tetrahydro-3-hydroxy-9,9-dimethyl-4-oxopyrimido[2,1-c][1,4]oxazin-2-yl)carbonyl]amino]methyl]phenyl]-, 1,1-dimethylethyl ester] as the compound, how does the IC50 read?
Answer: 2 to 100 nM

Question: Cc1ccc(C)c(CNC(=O)c2nc3n(c(=O)c2O)CCOC3(C)C)c1 [Example 269, Pyrimido[2,1-c][1,4]oxazine-2-carboxamide, N-[(2,5-dimethylphenyl)methyl]-4,6,7,9-tetrahydro-3-hydroxy-9,9-dimethyl-4-oxo-] was tested. Which IC50 did it give?
Answer: 2 to 100 nM

Question: CN(CCO)C(=O)c1ncn(-c2cc(F)ccc2CNC(=O)c2nc3n(c(=O)c2O)CCOC3(C)C)n1 [Example 67, Pyrimido[2,1-c][1,4]oxazine-2-carboxamide, N-[[4-fluoro-2-[3-[[(2-hydroxyethyl)methylamino]carbonyl]-1H-1,2,4-triazol-1-yl]phenyl]methyl]-4,6,7,9-tetrahydro-3-hydroxy-9,9-dimethyl-4-oxo-] was tested. Which IC50 did it give?
Answer: 2 to 100 nM

Question: With CC1(C)OCCn2c1nc(C(=O)NCc1ccccc1-c1cccc(NS(C)(=O)=O)c1)c(O)c2=O [Example 176, Pyrimido[2,1-c][1,4]oxazine-2-carboxamide, 4,6,7,9-tetrahydro-3-hydroxy-9,9-dimethyl-N-[[3′-[(methylsulfonyl)amino][1,1′-biphenyl]-2-yl]methyl]-4-oxo-] as the compound, how does the IC50 read?
Answer: 2 to 100 nM

Question: CC1(C)OCCn2c1nc(C(=O)NCc1ccc(F)cc1-n1nccn1)c(O)c2=O [Example 57, Pyrimido[2,1-c][1,4]oxazine-2-carboxamide, N-[[4-fluoro-2-(2H-1,2,3-triazol-2-yl)phenyl]methyl]-4,6,7,9-tetrahydro-3-hydroxy-9,9-dimethyl-4-oxo-] was tested. Which IC50 did it give?
Answer: 2 to 100 nM

Question: Which IC50 does the source give for CC1(C)OCCn2c1nc(C(=O)NCc1ccc(N3CCOCC3)cc1)c(O)c2=O [Example 253, Pyrimido[2,1-c][1,4]oxazine-2-carboxamide, 4,6,7,9-tetrahydro-3-hydroxy-9,9-dimethyl-N-[[4-(4-morpholinyl)phenyl]methyl]-4-oxo-] here?
Answer: > 1000 nM

Question: Cn1nnnc1-c1cc(F)ccc1CNC(=O)c1nc2n(c(=O)c1O)CCOC2(C)C [Example 107, Pyrimido[2,1-c][1,4]oxazine-2-carboxamide, N-[[4-fluoro-2-(1-methyl-1H-tetrazol-5-yl)phenyl]methyl]-4,6,7,9-tetrahydro-3-hydroxy-9,9-dimethyl-4-oxo-] was tested. Which IC50 did it give?
Answer: 2 to 100 nM

Question: With CC(=O)N(C)c1cc(F)ccc1CNC(=O)c1nc2n(c(=O)c1O)CCOC2(C)C [Example 136, Pyrimido[2,1-c][1,4]oxazine-2-carboxamide, N-[[2-(acetylmethylamino)-4-fluorophenyl]methyl]-4,6,7,9-tetrahydro-3-hydroxy-9,9-dimethyl-4-oxo-] as the compound, how does the IC50 read?
Answer: 2 to 100 nM

Question: For CC1(C)OCCn2c1nc(C(=O)NCc1cc(Cl)ccc1Cl)c(O)c2=O [Example 228, Pyrimido[2,1-c][1,4]oxazine-2-carboxamide, N-[(2,5-dichlorophenyl)methyl]-4,6,7,9-tetrahydro-3-hydroxy-9,9-dimethyl-4-oxo-], which IC50 is on record?
Answer: 2 to 100 nM

Question: C#Cc1cc(F)ccc1CNC(=O)c1nc2n(c(=O)c1O)CCOC2(C)C [Example 88, Pyrimido[2,1-c][1,4]oxazine-2-carboxamide, N-[(2-ethynyl-4-fluorophenyl)methyl]-4,6,7,9-tetrahydro-3-hydroxy-9,9-dimethyl-4-oxo-] was tested. Which IC50 did it give?
Answer: 2 to 100 nM

Question: With CC1(C)OCCn2c1nc(C(=O)NCc1ccccc1-c1ccc(N3CCOCC3)cc1)c(O)c2=O [Example 168, Pyrimido[2,1-c][1,4]oxazine-2-carboxamide, 4,6,7,9-tetrahydro-3-hydroxy-9,9-dimethyl-N-[[4′-(4-morpholinyl)[1,1′-biphenyl]-2-yl]methyl]-4-oxo-] as the compound, how does the IC50 read?
Answer: 2 to 100 nM

Question: With Cc1ccc(CNC(=O)c2nc3n(c(=O)c2O)CCOC3(C)C)cc1 [Example 240, Pyrimido[2,1-c][1,4]oxazine-2-carboxamide, 4,6,7,9-tetrahydro-3-hydroxy-9,9-dimethyl-N-[(4-methylphenyl)methyl]-4-oxo-] as the compound, how does the IC50 read?
Answer: 2 to 100 nM

Question: Cc1ccncc1-c1ccccc1CNC(=O)c1nc2n(c(=O)c1O)CCOC2(C)C [Example 191, Pyrimido[2,1-c][1,4]oxazine-2-carboxamide, 4,6,7,9-tetrahydro-3-hydroxy-9,9-dimethyl-N-[[2-(4-methyl-3-pyridinyl)phenyl]methyl]-4-oxo-] was tested. Which IC50 did it give?
Answer: 2 to 100 nM

Question: With CC1(C)OCCn2c1nc(C(=O)NCc1cccc(Cl)c1F)c(O)c2=O [Example 266, Pyrimido[2,1-c][1,4]oxazine-2-carboxamide, N-[(3-chloro-2-fluorophenyl)methyl]-4,6,7,9-tetrahydro-3-hydroxy-9,9-dimethyl-4-oxo-] as the compound, how does the IC50 read?
Answer: 2 to 100 nM

Question: For CN(C)C(=O)COc1cc(F)ccc1CNC(=O)c1nc2n(c(=O)c1O)CCOC2(C)C [Example 98, Pyrimido[2,1-c][1,4]oxazine-2-carboxamide, N-[[2-[2-(dimethylamino)-2-oxoethoxy]-4-fluorophenyl]methyl]-4,6,7,9-tetrahydro-3-hydroxy-9,9-dimethyl-4-oxo-], which IC50 is on record?
Answer: 2 to 100 nM

Question: For CC1(C)OCCCn2c1nc(C(=O)NCc1ccc(F)cc1N1CCC1=O)c(O)c2=O [Example 280, 6H-Pyrimido[2,1-c][1,4]oxazepine-2-carboxamide, N-[[4-fluoro-2-(2-oxo-1-azetidinyl)phenyl]methyl]-4,7,8,10-tetrahydro-3-hydroxy-10,10-dimethyl-4-oxo-], which IC50 is on record?
Answer: 2 to 100 nM

Question: With CNC(=O)COc1cc(F)ccc1CNC(=O)c1nc2n(c(=O)c1O)CCOC2(C)C [Example 97, Pyrimido[2,1-c][1,4]oxazine-2-carboxamide, N-[[4-fluoro-2-[2-(methylamino)-2-oxoethoxy]phenyl]methyl]-4,6,7,9-tetrahydro-3-hydroxy-9,9-dimethyl-4-oxo-] as the compound, how does the IC50 read?
Answer: 2 to 100 nM

Question: With CC1(C)OCCn2c1nc(C(=O)NCc1ccccc1-c1ccc(CN)cc1)c(O)c2=O [Example 169] as the compound, how does the IC50 read?
Answer: 2 to 100 nM

Question: With Cn1ccc2c(CNC(=O)c3nc4n(c(=O)c3O)CCOC4(C)C)cccc21 [Example 279, Pyrimido[2,1-c][1,4]oxazine-2-carboxamide, 4,6,7,9-tetrahydro-3-hydroxy-9,9-dimethyl-N-[(1-methyl-1H-indol-4-yl)methyl]-4-oxo-] as the compound, how does the IC50 read?
Answer: 2 to 100 nM

Question: Which IC50 does the source give for CC(=O)Nc1cc(F)ccc1CNC(=O)c1nc2n(c(=O)c1O)CCOC2(C)C [Example 135, Pyrimido[2,1-c][1,4]oxazine-2-carboxamide, N-[[2-(acetylamino)-4-fluorophenyl]methyl]-4,6,7,9-tetrahydro-3-hydroxy-9,9-dimethyl-4-oxo-] here?
Answer: 2 to 100 nM

Question: For CC1(C)OCCn2c1nc(C(=O)NCc1cccc3c1OCCO3)c(O)c2=O [Example 267, Pyrimido[2,1-c][1,4]oxazine-2-carboxamide, N-[(2,3-dihydro-1,4-benzodioxin-5-yl)methyl]-4,6,7,9-tetrahydro-3-hydroxy-9,9-dimethyl-4-oxo-], which IC50 is on record?
Answer: 2 to 100 nM

Question: How did the IC50 turn out when CC1(C)OCCn2c1nc(C(=O)NCc1ccc(F)cc1N1C(=O)CC[C@@H]1CO)c(O)c2=O [Example 128, Pyrimido[2,1-c][1,4]oxazine-2-carboxamide, N-[[4-fluoro-2-[(2R)-2-(hydroxymethyl)-5-oxo-1-pyrrolidinyl]phenyl]methyl]-4,6,7,9-tetrahydro-3-hydroxy-9,9-dimethyl-4-oxo-] was run?
Answer: 2 to 100 nM

Question: With CC1(C)OCCn2c1nc(C(=O)NCCCc1ccc(Cl)c(Cl)c1)c(O)c2=O [Example 25, Pyrimido[2,1-c][1,4]oxazine-2-carboxamide, N-[3-(3,4-dichlorophenyl)propyl]-4,6,7,9-tetrahydro-3-hydroxy-9,9-dimethyl-4-oxo-] as the compound, how does the IC50 read?
Answer: 100 to 1000 nM

Question: For CC1(C)OCCn2c1nc(C(=O)NCc1ccccc1-c1ccc(F)nc1)c(O)c2=O [Example 151], which IC50 is on record?
Answer: 2 to 100 nM

Question: With CN(C)c1ccc(CNC(=O)c2nc3n(c(=O)c2O)CCOC3(C)C)cc1 [Example 257, Pyrimido[2,1-c][1,4]oxazine-2-carboxamide, N-[[4-(dimethylamino)phenyl]methyl]-4,6,7,9-tetrahydro-3-hydroxy-9,9-dimethyl-4-oxo-] as the compound, how does the IC50 read?
Answer: 2 to 100 nM

Question: How did the IC50 turn out when Cc1ccc(CNC(=O)c2nc3n(c(=O)c2O)CCOC3(C)C)cc1Cl [Example 231, Pyrimido[2,1-c][1,4]oxazine-2-carboxamide, N-[(3-chloro-4-methylphenyl)methyl]-4,6,7,9-tetrahydro-3-hydroxy-9,9-dimethyl-4-oxo-] was run?
Answer: 2 to 100 nM
